According to patent publication US20240336622A1 (The Board of Regents of The University of Texas System, priority 2021, published 2024):
Like-named read-outs stand apart in the source and are kept apart here.

Assays:
[1] = tested on: UWB1, A673, Fadu, H2058, H1048, MDA-MB-468 cells; assay: Cytotoxicity in cancer cell lines with different genetic background (cell titer glo); type: cell-based; settings: 1 μM for 96 hours
Source text: Cells were then subjected to cell titer glo analysis. Data represent mean±SEM.

[2] = tested on: PARP1; assay: PARP1 trapping activity of nimbolide analogs (FIGS. 19, 20); type: cell-based; settings: for PARP1 trapping by nimbolide analogs: FIGS. 19 and 20
[3] = tested on: UWB1 cells; assay: cells
[4] = tested on: UWB1 cells
[5] = read-out: IC50 (μM) UWB1 cells, UWB1 cell viability

SMILES	IC50 ([3]; read-out: IC50 (μM) UWB1 cells) [µM]	IC50 [3, 5] [µM]	other results
O=C(c1cc(Cc2n[nH]c(=O)c3ccccc23)ccc1F)N1CCN(C(=O)C2CC2)CC1 [Olaparib, olaparib]	–	–	sensitivity of cell lines (UWB1, A673, Fadu, H2058, H1048, MDA-MB-468) [1]: different degrees of sensitivity
C=C1[C@H](O[C@@H]2C[C@@H](c3ccoc3)C(C)=C2I)[C@@H]2OC(=O)[C@]3(C)C=CC(=O)[C@@](C)([C@@H]23)[C@H]1CC(=O)OC [S-26]	0.226	–	PARP1 trapping by nimbolide analogs [2]: induce profound PARP1 trapping
CC[Si](CC)(CC)O[C@H]1C(=O)[C@H](CC(=O)OC)[C@@]2(C)C(=O)C=C[C@@]3(C)C(=O)O[C@@H]1[C@H]23 [S-39]	1.18	–	PARP1 trapping by nimbolide analogs [2]: induce PARP1 trapping
COC(=O)C[C@H]1[C@]2(C)C3=C(C)[C@H](c4ccoc4-c4ccc(O[Si](C)(C)C(C)(C)C)cc4)C[C@H]3O[C@@H]2[C@@H]2OC(=O)[C@]3(C)C=CC(=O)[C@@]1(C)[C@@H]23 [S-46]	–	0.089	trapping activity compared to nimbolide ([2]; FIG. 19): more potent trapping activity; PARP1 trapping by nimbolide analogs [2]: induce PARP1 trapping; cytotoxicity against UWB1 cells [4]: excellent cytotoxicity
COC(=O)C[C@H]1[C@]2(C)C3=C(C)[C@H](C4=CC(=O)OC4OC(C)=O)C[C@H]3O[C@@H]2[C@@H]2OC(=O)[C@]3(C)C=CC(=O)[C@@]1(C)[C@@H]23 (stereo partly shown) [S-51]	–	–	IC50 [4, 5]: 0.954 µM
C=C1[C@H](O[C@H]2CCC(C)=C2I)[C@@H]2OC(=O)[C@]3(C)C=CC(=O)[C@@](C)([C@@H]23)[C@H]1CC(=O)OC [S-84]	–	0.183	PARP1 trapping by nimbolide analogs [2]: induce profound PARP1 trapping
COC(=O)C[C@H]1[C@]2(C)C3=C(C)[C@H](c4ccc(O[Si](C)(C)C(C)(C)C)cc4)C[C@H]3O[C@@H]2[C@@H]2OC(=O)[C@]3(C)C=CC(=O)[C@@]1(C)[C@@H]23 [S-117]	0.0788	–	–
COC(=O)C[C@H]1[C@@H]2CC3=C(C)[C@H](c4ccc(O[Si](C)(C)C(C)(C)C)cc4)C[C@H]3O[C@@H]2[C@@H]2OC(=O)[C@]3(C)C=CC(=O)[C@@]1(C)[C@@H]23 [S-118]	0.0815	–	–
COC(=O)C[C@H]1[C@@H]2CC3=C(C)[C@H](c4ccc(O[Si](C)(C)C(C)(C)C)cc4)C[C@@H]3O[C@@H]2[C@@H]2OC(=O)[C@]3(C)C=CC(=O)[C@@]1(C)[C@@H]23 [S-119]	0.188	–	–
COC(=O)C[C@H]1[C@@H]2CC3=C(C)[C@@H](c4ccc(O[Si](C)(C)C(C)(C)C)cc4)C[C@H]3O[C@@H]2[C@@H]2OC(=O)[C@]3(C)C=CC(=O)[C@@]1(C)[C@@H]23 [S-121]	0.19	–	–
COC(=O)C[C@H]1[C@@H]2CC3=C(C)[C@@H](c4ccc(O[Si](C)(C)C(C)(C)C)cc4)C[C@@H]3O[C@@H]2[C@@H]2OC(=O)[C@]3(C)C=CC(=O)[C@@]1(C)[C@@H]23 [S-122]	0.0534	–	–
COC(=O)C[C@H]1[C@]2(C)C3=C(C)[C@H](c4ccc(O)cc4)C[C@H]3O[C@@H]2[C@@H]2OC(=O)[C@]3(C)C=CC(=O)[C@@]1(C)[C@@H]23 [S-123]	–	0.464	–
COC(=O)C[C@H]1[C@]2(C)C3=C(C)[C@H](c4ccc(OC(=O)C(C)(C)C)cc4)C[C@H]3O[C@@H]2[C@@H]2OC(=O)[C@]3(C)C=CC(=O)[C@@]1(C)[C@@H]23 [S-124]	–	0.564	–
COC(=O)C[C@H]1[C@@H]2CC3=C(C)[C@H](c4ccc(OC(=O)C(C)(C)C)cc4)C[C@@H]3O[C@@H]2[C@@H]2OC(=O)[C@]3(C)C=CC(=O)[C@@]1(C)[C@@H]23 [S-126]	–	0.141	–
COC(=O)C[C@H]1[C@@H]2CC3=C(C)[C@H](c4ccccc4O[Si](C)(C)C(C)(C)C)C[C@@H]3O[C@@H]2[C@@H]2OC(=O)[C@]3(C)C=CC(=O)[C@@]1(C)[C@@H]23 [S-127]	0.927	–	–
COC(=O)C[C@H]1[C@]2(C)C3=C(C)[C@H](c4ccccc4O[Si](C)(C)C(C)(C)C)C[C@H]3O[C@@H]2[C@@H]2OC(=O)[C@]3(C)C=CC(=O)[C@@]1(C)[C@@H]23 [S-128]	0.0908	–	–
COC(=O)C[C@H]1[C@@H]2CC3=C(C)[C@H](c4ccccc4O[Si](C)(C)C(C)(C)C)C[C@H]3O[C@@H]2[C@@H]2OC(=O)[C@]3(C)C=CC(=O)[C@@]1(C)[C@@H]23 [S-129]	0.163	–	–
COC(=O)C[C@H]1[C@@H]2CC3=C(C)[C@H](c4ccc(OS(=O)(=O)C(F)(F)F)cc4)C[C@@H]3O[C@@H]2[C@@H]2OC(=O)[C@]3(C)C=CC(=O)[C@@]1(C)[C@@H]23 [S-130]	–	0.225	–
COC(=O)C[C@H]1[C@]2(C)C3=C(C)[C@H](C4=CCOC4=O)C[C@H]3O[C@@H]2[C@@H]2OC(=O)[C@]3(C)C=CC(=O)[C@@]1(C)[C@@H]23 [S-131]	–	1.18	–
COC(=O)C[C@H]1[C@]2(C)C3=C(C)[C@H](c4ccc(-c5cc(C(C)(C)C)cc(C(C)(C)C)c5)cc4)C[C@H]3O[C@@H]2[C@@H]2OC(=O)[C@]3(C)C=CC(=O)[C@@]1(C)[C@@H]23 [S-132]	–	0.142	–
COC(=O)C[C@H]1[C@@H]2CC3=C(C)[C@H](c4ccc(-c5cc(C(C)(C)C)cc(C(C)(C)C)c5)cc4)C[C@H]3O[C@@H]2[C@@H]2OC(=O)[C@]3(C)C=CC(=O)[C@@]1(C)[C@@H]23 [S-133]	–	0.186	–
COC(=O)C[C@H]1[C@@H]2CC3=C(C)[C@H](c4ccc(-c5cc(C(C)(C)C)cc(C(C)(C)C)c5)cc4)C[C@@H]3O[C@@H]2[C@@H]2OC(=O)[C@]3(C)C=CC(=O)[C@@]1(C)[C@@H]23 [S-134]	–	0.091	–

SMILES	IC50 ([3]; read-out: IC50 (μM) UWB1 cells) [µM]	IC50 [3, 5] [µM]	other results
COC(=O)C[C@H]1[C@]2(C)C3=C(C)[C@@H](c4ccc(-c5cc(C(C)(C)C)cc(C(C)(C)C)c5)cc4)C[C@H]3O[C@@H]2[C@@H]2OC(=O)[C@]3(C)C=CC(=O)[C@@]1(C)[C@@H]23 [S-135]	–	0.185	–
COC(=O)C[C@H]1[C@@H]2CC3=C(C)[C@@H](c4ccc(-c5cc(C(C)(C)C)cc(C(C)(C)C)c5)cc4)C[C@H]3O[C@@H]2[C@@H]2OC(=O)[C@]3(C)C=CC(=O)[C@@]1(C)[C@@H]23 [S-136]	–	0.0934	–
COC(=O)C[C@H]1[C@@H]2CC3=C(C)[C@@H](c4ccc(-c5cc(C(C)(C)C)cc(C(C)(C)C)c5)cc4)C[C@@H]3O[C@@H]2[C@@H]2OC(=O)[C@]3(C)C=CC(=O)[C@@]1(C)[C@@H]23 [S-137]	–	0.169	–
COC(=O)C[C@H]1[C@@H]2CC3=C(C)[C@@H](c4ccc(OS(=O)(=O)c5c(C)cc(C)cc5C)cc4)C[C@@H]3O[C@@H]2[C@@H]2OC(=O)[C@]3(C)C=CC(=O)[C@@]1(C)[C@@H]23 [S-139]	–	0.14	–
COC(=O)C[C@H]1[C@@H]2CC3=C(C)[C@@H](c4ccc(OS(=O)(=O)c5ccc(C)cc5)cc4)C[C@@H]3O[C@@H]2[C@@H]2OC(=O)[C@]3(C)C=CC(=O)[C@@]1(C)[C@@H]23 [S-140]	–	0.119	–
COC(=O)C[C@H]1[C@]2(C)C3=C(C)[C@H](c4ccc(C(C)(C)C)cc4)C[C@H]3O[C@@H]2[C@@H]2OC(=O)[C@]3(C)C=CC(=O)[C@@]1(C)[C@@H]23 [S-141]	–	0.248	–
COC(=O)C[C@H]1[C@@H]2CC3=C(C)[C@H](c4ccc(C(C)(C)C)cc4)C[C@@H]3O[C@@H]2[C@@H]2OC(=O)[C@]3(C)C=CC(=O)[C@@]1(C)[C@@H]23 [S-142]	–	0.145	–
COC(=O)C[C@H]1[C@@H]2CC3=C(C)[C@H](c4ccc(C(C)(C)C)cc4)C[C@H]3O[C@@H]2[C@@H]2OC(=O)[C@]3(C)C=CC(=O)[C@@]1(C)[C@@H]23 [S-143]	–	0.238	–
COC(=O)C[C@H]1[C@@H]2CC3=C(C)[C@@H](c4ccc(C(C)(C)C)cc4)C[C@@H]3O[C@@H]2[C@@H]2OC(=O)[C@]3(C)C=CC(=O)[C@@]1(C)[C@@H]23 [S-144]	–	0.14	–
COC(=O)C[C@H]1[C@]2(C)C3=C(C)[C@@H](c4ccc(C(C)(C)C)cc4)C[C@H]3O[C@@H]2[C@@H]2OC(=O)[C@]3(C)C=CC(=O)[C@@]1(C)[C@@H]23 [S-145]	–	0.157	–
COC(=O)C[C@H]1[C@]2(C)C3=C(C)[C@H](c4ccc(CO[Si](C)(C)C(C)(C)C)cc4)C[C@H]3O[C@@H]2[C@@H]2OC(=O)[C@]3(C)C=CC(=O)[C@@]1(C)[C@@H]23 [S-146]	0.18	–	–
COC(=O)C[C@H]1[C@@H]2CC3=C(C)[C@H](c4ccc(CO[Si](C)(C)C(C)(C)C)cc4)C[C@@H]3O[C@@H]2[C@@H]2OC(=O)[C@]3(C)C=CC(=O)[C@@]1(C)[C@@H]23 [S-147]	0.192	–	–
COC(=O)C[C@H]1[C@]2(C)C3=C(C)[C@@H](c4ccc(CO[Si](C)(C)C(C)(C)C)cc4)C[C@H]3O[C@@H]2[C@@H]2OC(=O)[C@]3(C)C=CC(=O)[C@@]1(C)[C@@H]23 [S-148]	0.161	–	–
COC(=O)C[C@H]1[C@@H]2CC3=C(C)[C@@H](c4ccc(CO[Si](C)(C)C(C)(C)C)cc4)C[C@@H]3O[C@@H]2[C@@H]2OC(=O)[C@]3(C)C=CC(=O)[C@@]1(C)[C@@H]23 [S-149]	0.163	–	–
COC(=O)C[C@H]1[C@@H]2CC3=C(C)[C@@H](c4ccc(CO)cc4)C[C@@H]3O[C@@H]2[C@@H]2OC(=O)[C@]3(C)C=CC(=O)[C@@]1(C)[C@@H]23 [S-150]	–	0.351	–
COC(=O)C[C@H]1[C@@H]2CC3=C(C)[C@@H](c4ccc(C=O)cc4)C[C@@H]3O[C@@H]2[C@@H]2OC(=O)[C@]3(C)C=CC(=O)[C@@]1(C)[C@@H]23 [S-151]	–	0.766	–
COC(=O)C[C@H]1[C@@H]2CC3=C(C)[C@@H](c4ccc(C(=O)O)cc4)C[C@@H]3O[C@@H]2[C@@H]2OC(=O)[C@]3(C)C=CC(=O)[C@@]1(C)[C@@H]23 [S-152]	–	2.88	–
COC(=O)C[C@H]1[C@@H]2CC3=C(C)[C@@H](c4ccc(C(=O)NC(C)(C)C)cc4)C[C@@H]3O[C@@H]2[C@@H]2OC(=O)[C@]3(C)C=CC(=O)[C@@]1(C)[C@@H]23 [S-153]	–	0.245	–
CC1=C2[C@@H](C[C@H]1c1ccoc1)O[C@@H]1[C@@H]3OC(=O)[C@]4(C)C=CC(=O)[C@](C)([C@@H](CC(=O)OC(C)(C)C)[C@]21C)[C@@H]34 [S-154]	–	0.453	–
CC1=C2C[C@@H]3[C@H](O[C@@H]2C[C@H]1c1ccoc1)[C@@H]1OC(=O)[C@]2(C)C=CC(=O)[C@@](C)([C@@H]12)[C@H]3CC(=O)OC(C)(C)C [S-155]	–	0.306	–
C=C1[C@H](O)[C@@H]2OC(=O)[C@]3(C)C=CC(=O)[C@@](C)([C@@H]23)[C@H]1CC(=O)OC(C)(C)C [S-156]	–	3.65	–
